Experimental data from US5948931A (priority 1997, dated 1999).
Read-outs that look alike come from different tables or passages of the source.

How the values were obtained:
[1] = about pH 5-8, preferably about pH 6-7
[2] = Kinetics of hydrolysis of PNHDA, dependence on pH and Ni2+; assay type: physicochemical; parameters: K / K': unit not given here
Protocol: The rates of hydrolysis of p-nitrophenyl(hydroxyimino)-(dihydroxyphosphinyl)acetate (16) were determined with Shimadzu UV-260 spectrophotometer by monitoring appearance of thep-nitrophenol at 400 nm (pH 6-11) and 317 nm (pH 4-5) and disappearance of reactant (16) at 217 nm (pH 4-5). The product spectra were quantitatively identified with those of equivalent concentration of p-nitrophenol under the same conditions. Reaction mixture pH values were measured. at 25 and 50° C. with a Beckman Model 71 pH meter. For non-metal ion-assisted reactions, a few buffer solutions were prepared with EDTA (2×10^-5) as a precaution against trace metal ions in the buffer and salts, but the same results were obtained as with the non-EDTA-containing buffers. Buffers employed were acetate (pH 4.2-5.3), N-ethyl morpholine (pH 6.7-7.8), and borate (pH 8-11). The buffer concentrations were 0.02-0.01 M (no significant catalytic effect). The ionic strength was 0.5-1.0 M, maintained with NaCl.
To initiate a kinetic run, 50-100 μl of 19 stock solution (0.002 M in H2 O) was injected into 2-3 ml of reactant solution maintained at the desired temperature. The reactions followed pseudo-first-order kinetics for at least 3 half-lives. Kinetic parameters were calculated with a linear least-squares computer program.

[3] = Stability / hydrolysis-fragmentation of E-16 (anilinium salt E-19) in water; assay type: physicochemical; details: for half-life: read-out: t1/2 of decomposition in H2O (converted)
Protocol: Stability of E-19. These experiments were carried out in 5 mm glass NMR tubes at 22° C., concentration of E-4 0.1% (w/v).

[4] = Kinetic measurements of hydrolysis (release of p-nitrophenoxide), effect of Mg2+; assay type: physicochemical
Excerpt: Kinetic Measurements of the Hydrolysis of E-19.

## O=C(O)/C(=N\O)P(=O)(O)O [E-7, α-(hydroxyimino)phosphonoacetic acid]
[1]
  phosphorylating activity: active phosphorylating agent

## COP(=O)(O)/C(=N/O)C(=O)O [E-8, (E)-(hydroxyimino)(hydroxymethoxyphosphinyl)acetic acid]
About pH 7, about 24 hours, room temperature
  stability in water: stable
pH 1.5
  methyl phosphate formed: 15%
  methyl phosphorocyanidate formed: 85%
  rate of E-8→Z-8→15 relative to dissociative fragmentation: about 6 ×
pH 1.5, over 2.5 hours
  decomposition: quantitatively decomposed
pH 7, 25° C.
  reactivity: unreactive

## O=C(Oc1ccc([N+](=O)[O-])cc1)/C(=N\O)P(=O)(O)O [E-16, p-nitrophenyl (E)-(dihydroxyphosphinyl)(hydroxyimino)acetate]
[2]; 0.01M Ni2+, pH 4.2
  enhancement of rate by Ni2+ (factor): 3
[2]; 0.01M Ni2+, pH 6.5
  enhancement of Kobsd by Ni2+ (factor): 28
[2]; 0.01M Ni2+, pH 7.4
  enhancement of Kobsd by Ni2+ (factor): 20
[2]; constant pH
  Ni2+ concentration with saturation effect on Kobsd: 7 mM
[2]; pH 4.2, Ni = 0.01M, 50° C.
  K: 0.015
  log (k): -1.824
[2]; pH 4.2, no metal ion, 50° C.
  K: 0.0049
  log (k): -2.311
[2]; pH 5.2, no metal ion, 50° C.
  K: 0.0156
  K': 0.0165
  log (K'): -1.78
  log (k): -1.807
[2]; pH 6.5, Ni = 0.01M, 50° C.
  K: 0.31
  log (k): -0.509
[2]; pH 6.5, no metal ion, 50° C.
  K: 0.011
  K': 0.009
  log (K'): -2.05
  log (k): -1.959
[2]; pH 7.4, Ni = 0.01M, 50° C.
  K: 1.127
  K': 1.1
  log (K'): 0.041
  log (k): 0.052
[2]; pH 7.4, no metal ion, 50° C.
  K: 0.0563
  K': 0.0605
  log (K'): -1.22
  log (k): -1.249
[2]; pH 8.5, no metal ion, 25° C.
  K: 0.052
  K': 0.05635
  log (K'): -1.249
  log (k): -1.288
[2]; pH 9, no metal ion, 25° C.
  K: 0.101
  K': 0.101
  log (K'): -0.996
  log (k): -0.997
[2]; pH 9.5, no metal ion, 25° C.
  K: 0.33
  K': 0.33
  log (K'): -0.481
  log (k): -0.481
[2]; pH 10, no metal ion, 25° C.
  K: 0.629
  K': 0.603
  log (K'): -0.22
  log (k): -0.201
[2]; pH 11, no metal ion, 25° C.
  K: 1.2
  K': 1.249
  log (K'): 0.0966
  log (k): 0.079
[2]; pH<7
  hydroxide dependence of hydrolysis: independent of hydroxide ion concentrations
[2]; pH>8
  hydroxide dependence of hydrolysis: hydroxide ion catalyzed
  slope of log Kobsd vs pH: 0.8
[3]; pH 6.5
  phosphate among products: 92%
  phosphorocyanidate among products: 8%
[3]; pH 8.5
  phosphate among products: 80%
  phosphorocyanidate among products: 20%
[3]; pH 8.5, 1:1 water:methanol
  phosphoric acid and methyl phosphate, total: 34%
[3]; pH 8.5, presence of Mg2+
  formation of phosphorocyanidate: not observed
  hydrolysis rate in words: faster
[3]; pH about 3, 52 hr
  phosphate among products: 100%
[3]; water, pH 3, pH about 3, 52 hr, read-out: decomposition in H2O
  degraded at 52 h: < 4%
[3]; water, pH 6.5
  half-life: ~30 h
[3]; water, pH 8.5
  half-life: ~1 h
[4]; 0.2 M MgCl2
  rate of release of p-nitrophenoxide vs. p-nitrophenyl acetate (times faster): 40 ×
[4]; 0.2 M MgCl2, pH 8.5, 25° C.
  enhancement of hydrolysis rate by MgCl2 (factor): 2.5 (±0.1)
[4]; pH 8.5, 25° C., no Mg2+
  rate of release of p-nitrophenoxide vs. p-nitrophenyl acetate (times faster): 20 ×
[4]; qualitative
  acceleration of p-nitrophenyl ester hydrolysis by (E)-oxime group: several orders of magnitude
